Assay results reported in patent publication US20240083857A1, “2-Methyl-Quinazolines” (Bayer Pharma Aktiengesellschaft, priority 2017, published 2024).

Experiments:
[1] = target: human SOS1 (nucleotide exchange of K-Ras^G12C) (Homo sapiens, UniProt Q07889); experiment: Biochemical assay 2: K-Ras^G12C activation assay by hSOS1 at high GTP concentration (HTRF); details: high GTP; for IC50: read-out: Assay 2 (KRAS-Activation by SOS high GTP) activity expressed as IC50
Text: Biochemical Assay 2: K-Ras^G12C Activation Assay by hSOS1 at High GTP Concentration
This assay quantifies human SOS1-mediated nucleotide exchange of K-Ras^G12C preloaded with a fluorescent […] and in presence of an excess of free GTP. Loaded hK-Ras^G12C generates a high HTRF-signal by energy transfer from antiGST-Terbium (FRET donor) bound to K-Ras to the loaded fluorescent GDP analog (FRET-acceptor). SOS1 activity exchanges the fluorescent GDP for non-fluorescent GTP and therefore leads to a reduction of the HTRF signal.
The fluorescent GDP-analog EDA-GDP-Dy647P1 (2′/3′-O-(2-Aminoethyl-carbamoyl)-guanosine-5′-diphosphate labelled with Dy647P1 (Dyomics GmbH, Germany)) was synthesized by Jena Biosciences GmbH (Germany) and supplied as a 1 mM aqueous solution.
Concentrations of protein batches used were optimized to be within the linear range of the HTRF signal.
Preparation of GST-tagged hK-Ras^Gl2C loaded with fluorescent nucleotide was performed as follows: incubation of 11.5 μM hK-Ras^Gl2C with 5-fold excess GDP-Dy647 nucleotide (54 μM) in 500 μl NLS-buffer (RAS activation Kit Jena Bioscience, Kat. #PR-950) for 10 min at 37° C. Addition of 20 μl 1 M MgCl2 (Sigma) to final 40 mM and store on ice. Purification into buffer (10 mM HEPES pH 7.4 (Applichem), 150 mM NaCl (Sigma), 5 mM MgCl2 (Sigma)) by use of a PD-Minitrap desalting column (GE Healthcare). Concentration of 1 ml purified hK-Ras-GDP-Dy647 is approx. 4-5 μM.
The assay buffer contained 10 mM HEPES pH 7.4 (Applichem), 150 mM NaCl (Sigma), 5 mM MgCl2 (Sigma), 1 mM DTT (Thermofisher), 0.05% BSA Fraction V, pH 7.0, (ICN Biomedicals), 0.0025% (v/v) Igepal (Sigma).
A Ras working solution was prepared in assay buffer containing typically 80 nM loaded GST-hK-RasG12C-EDA-GDP-Dy647P1 and 2 nM antiGST-Tb (Cisbio, France). A hSOS1 working solution was prepared in assay buffer containing typically 8 nM His-hSOS1 and 100 μM GTP (Jena Bioscience, Germany). An inhibitor control solution was prepared in assay buffer containing the same concentration of […].
(§1) Fifty nl of a 100-fold concentrated solution of the test compound in DMSO were transferred into a black microtiter test plate (384 or 1536, Greiner Bio-One, Germany). For this, either a Hummingbird liquid handler (Digilab, MA, USA) or an Echo acoustic system (Labcyte, CA, USA) was used.
(§2) All steps of the assay were performed at 20° C. A volume of 2.5 μl of the Ras working solution was added to all wells of the test plate using a Multidrop dispenser (Thermo Labsystems). After 2 min preincubation, 2.5 μl of the hSOS1 working solution were added to all wells except for those wells at the side of the test plate that were subsequently filled with 2.5 μl of the inhibitor control solution. After 20 min incubation the fluorescence was measured with a Pherastar (BMG, Germany) using the HTRF module (excitation 337 nm, emission 1: 620 nm, emission 2: 665 nm).
(§3) IC50 values were calculated by 4-Parameter fitting using a commercial software package (Genedata Screener, Switzerland).

[2] = target: K-Ras^G12C : hSOS1 interaction (Homo sapiens, UniProt Q07889); experiment: Biochemical assay 1: K-Ras^G12C interaction assay with hSOS1 (HTRF); type: binding; details: read-out: Assay 1 (KRAS-SOS Interaction) activity expressed as IC50
Procedure: Biochemical assay 1: K-Ras^G12C Interaction Assay with hSOS1
This assay quantifies the equilibrium interaction of human SOS1 with K-Ras^Gl2C. Detection of the interaction is achieved by measuring homogenous time-resolved fluorescence resonance energy transfer (HTRF) from antiGST-Europium (FRET donor) bound to GST-K-Ras^G12C to anti-6His-XL665 bound to His-tagged hSOS1 (FRET-acceptor).
The assay buffer contained 5 mM HEPES pH 7.4 (Applichem), 150 mM NaCl (Sigma), 10 mM EDTA (Promega), 1 mM DTT (Thermofisher), 0.05% BSA Fraction V, pH 7.0, (ICN Biomedicals), 0.0025% (v/v) Igepal (Sigma) and 100 mM KF (FLUKA).
Concentrations of protein batches used were optimized to be within the linear range of the HTRF signal. A Ras working solution was prepared in assay buffer containing typically 10 nM GST-hK-RasG12C and 2 nM antiGST-Eu(K) (Cisbio, France). A SOS working solution was prepared in assay buffer containing typically 20 nM His-hSOS1 and 10 nM anti-6His-XL665 (Cisbio, France). An inhibitor control solution was prepared in assay buffer containing 10 nM anti-6His-XL665 without hSOS1.
as §1
as §2, with “the SOS” for “the hSOS1”, “After 60” for “After 20”
as §3

[3] = target: human SOS1 (loading of human K-Ras^G12C-GDP with fluorescent GTP-analog) (Homo sapiens, UniProt Q07889); experiment: Biochemical assay 3: K-Ras^G12C activation assay by hSOS1 (HTRF); details: no GTP; for IC50: read-out: Assay 3 (KRAS-Activation by SOS no GTP) activity expressed as IC50

SMILES	IC50 [1]	IC50 [2]	IC50 [3]	inhibition at 20 µM ([1]; read-out: Assay 2 (KRAS-Activation by SOS high GTP) activity expressed as % inhibition at 20 μM, at 20 μM)	inhibition at 20 µM ([3]; read-out: Assay 3 (KRAS-Activation by SOS no GTP) activity expressed as % inhibition at 20 μM, at 20 μM)
COc1cc2nc(C)nc(N[C@H](C)c3cccc(-c4cccc(/C=C/C#N)c4)c3)c2cc1OC [Example 93, (2E)-3-(3′-{(1R)-1-[(6,7-dimethoxy-2-methylquinazolin-4-yl)amino]ethyl}biphenyl-3-yl)prop-2-enenitrile]	1580 nM	1850 nM	2890 nM		
COc1cc2nc(C)nc(N[C@H](C)c3cccc(-c4ccncc4C)c3)c2cc1OC [Example 108, 6,7-dimethoxy-2-methyl-N-{(1R)-1-[3-(3-methylpyridin-4-yl)phenyl]ethyl}quinazolin-4-amine]	901 nM	821 nM	1230 nM		
COc1cc2nc(C)nc(N[C@H](C)c3cccc(-c4ccc(S(C)(=O)=O)cc4)c3)c2cc1OC [Example 82, 6,7-dimethoxy-2-methyl-N-{(1R)-1-[4′-(methylsulfonyl)biphenyl-3-yl]ethyl}quinazolin-4-amine]	857 nM	598 nM	1000 nM		
CCOCc1ccccc1-c1ccc([C@H](C)Nc2nc(C)nc3cc(OC)c(OC)cc23)s1 (racemic) [Example 133, N-[1-{5-[2-(ethoxymethyl)phenyl]thiophen-2-yl}ethyl]-6,7-dimethoxy-2-methylquinazolin-4-amine]	4030 nM	4300 nM	5670 nM		
COc1cc2nc(C)nc(N[C@H](C)c3cccc(-c4ccc(CO)s4)c3)c2cc1OC [Example 107, [5-(3-{(1R)-1-[(6,7-dimethoxy-2-methylquinazolin-4-yl)amino]ethyl}phenyl)thiophen-2-yl]methanol]	467 nM	319 nM	438 nM		
COc1cc2nc(C)nc(N[C@@H](C)c3ccc(-c4cccc(/C=C/C#N)c4)s3)c2cc1OC (racemic) [Example 160, (2E)-3-[3-(5-{1-[(6,7-dimethoxy-2-methylquinazolin-4-yl)amino]ethyl}thiophen-2-yl)phenyl]prop-2-enenitrile]		16100 nM		33%	13%
COc1cc2nc(C)nc(N[C@H](C)c3cccc(-c4ccccc4OC(F)(F)F)c3)c2cc1OC [Example 83, 6,7-dimethoxy-2-methyl-N-{(1R)-1-[2′-(trifluoromethoxy)biphenyl-3-yl]ethyl}quinazolin-4-amine]	7850 nM	8500 nM	17400 nM		
COCc1ccccc1-c1cccc([C@@H](C)Nc2nc(C)nc3cc(OC)c(OC)cc23)c1 [Example 104, 6,7-dimethoxy-N-{(1R)-1-[2′-(methoxymethyl)biphenyl-3-yl]ethyl}-2-methylquinazolin-4-amine]	1900 nM	1820 nM	2520 nM		
COc1cc2nc(C)nc(N[C@H](C)c3cccc(-c4cncc(S(C)(=O)=O)c4)c3)c2cc1OC [Example 56, 6,7-dimethoxy-2-methyl-N-[(1R)-1-{3-[5-(methylsulfonyl)pyridin-3-yl]phenyl}ethyl]quinazolin-4-amine]	1790 nM	1470 nM	2560 nM		
COc1cc2nc(C)nc(N[C@H](C)c3cccc(-c4cccc(C(=O)N(C)C)c4)c3)c2cc1OC [Example 106, 3′-{(1R)-1-[(6,7-dimethoxy-2-methylquinazolin-4-yl)amino]ethyl}-N,N-dimethylbiphenyl-3-carboxamide]	1530 nM	1410 nM	2050 nM		
COc1cc2nc(C)nc(N[C@@H](C)c3ccc(-c4c(C)noc4C)s3)c2cc1OC (racemic) [Example 147, N-{1-[5-(3,5-dimethyl-1,2-oxazol-4-yl)thiophen-2-yl]ethyl}-6,7-dimethoxy-2-methylquinazolin-4-amine]	767 nM	397 nM	658 nM		
COc1cc2nc(C)nc(N[C@H](C)c3cccc(-c4cc5ccccc5n4C)c3)c2cc1OC [Example 88, 6,7-dimethoxy-2-methyl-N-{(1R)-1-[3-(1-methyl-1H-indol-2-yl)phenyl]ethyl}quinazolin-4-amine]	2560 nM	3560 nM	6180 nM		
